These results are taken from article PMC12818720, “Nanoengineered Self-Assembling Peptides with Increased Proteolytic Stability Promote Wound Healing” (ACS Applied Materials & Interfaces, 2025).

The test system of one data set is HaCaT cells. In words: Cytotoxicity / metabolic activity, AlamarBlue direct contact assay. The settings on record: assembly performed in the presence of Cu2+ (1:1), 24 h, serum-free DMEM-HG. It counts as cell-based, human. On the technique in general: Alamar Blue is a resazurin reagent that responds to reducing activity.
The target in the next data set is T1, proteinase K (Parengyodontium album, UniProt P06873).
T1 construct: purchased AppliChem
T1 sequence (P06873 106-384): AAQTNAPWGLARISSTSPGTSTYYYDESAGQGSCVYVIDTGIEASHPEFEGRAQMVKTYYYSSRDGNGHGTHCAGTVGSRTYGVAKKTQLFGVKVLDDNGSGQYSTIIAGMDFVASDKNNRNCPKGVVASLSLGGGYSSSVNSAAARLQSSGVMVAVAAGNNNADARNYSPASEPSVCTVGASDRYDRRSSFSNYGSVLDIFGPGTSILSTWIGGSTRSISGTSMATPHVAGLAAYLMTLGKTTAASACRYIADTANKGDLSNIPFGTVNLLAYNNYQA
The data set can be described thus: Stability of peptide assemblies against proteinase K (HPLC). It counts as in vitro ADME. The settings on record: in the presence of Cu2+, peptide 2 mM. The procedure:
The chemical structure and molecular packing of the peptides play a crucial role in their stability by (un)-shielding the amide bonds from enzymatic degradation. − We investigated the stability of the supramolecular assemblies generated by Pep1–Pep3 in the presence of proteinase K. This enzyme was selected because of its activity toward a broad range of peptides/proteins that spans different temperatures (25–65 °C) and pH values (7–12).
A stock solution of proteinase K (50 μg/mL, AppliChem) was prepared in PBS. Peptide assemblies were prepared as described in Section 1 day prior the assay. These samples were incubated with proteinase K (final concentration: 10 μg/mL for proteinase K and 2 mM for Cu-free or Cu-complexed Pep1-Pep3). At each designated time point, an aliquot of 150 μL was collected, and the enzymatic activity was stopped by adding 300 μL of 1:1 H2O/ACN with 0.1% TFA. The aliquot was quantitatively assessed using HPLC under the conditions described in Section . Each sample was run in duplicate to ensure reliable results.

Ends that are not written are not given here.

Experimental for HaCaT cells: As the designed systems target wound healing, we assessed their cytocompatibility toward human keratinocyte cell line HaCaT.
The cytotoxicity evaluation of the peptides and their supramolecular assemblies was evaluated by direct contact assay with HaCaT cells using the AlamarBlue HS Cell Viability Reagent assay (Biorad). Briefly, HaCaT cells were cultured in DMEM-HG supplemented with 10% FBS (2.5 × 10^4 cell/well) in 96-well plates for 24 h. Peptide solutions (10 mM) were prepared 24 h before the assay and sterilized (UV, 30 min). These solutions were diluted in serum-free DMEM-HG just prior to the assay to obtain concentrations ranging from 1 to 0.05 mM and added to the cultured HaCaT cells. Cultures with the peptides were mantained for 24 h and then the medium was aspirated, and AlamarBlue HS Cell Viability solution (10% (v/v) in DMEM-HG) was added to each well. The plates were incubated for 3 h at 37 °C with 5% CO2. The medium from each well was transferred to a black 96-well plate, and the fluorescence was measured using a microplate reader (Synergy, Bio-Tek) with an excitation wavelength of 550 nm and an emission wavelength of 590 nm. Cells cultured on tissue culture polystyrene (TCPS) were used as a positive control and cells treated with 20% DMSO were used as a negative one.

As for FFFFDGHK [Pep2], in the data set on HaCaT cells, the “concentration above which cytotoxicity was observed” value is “above 250 μM”.

For the sequence FFFFDKHG [Pep3], the “peptide not degraded after 6 h of incubation with proteinase K” value on proteinase K (proteinase K 10 μg/mL in PBS, 6 h, HPLC read-out, run in duplicate) was “more than 90%”. For the same sequence, the “initial concentration still present after 24 h with proteinase K” value on proteinase K (proteinase K 10 μg/mL in PBS, 24 h, HPLC read-out, run in duplicate) is 60%. Also, the “relative stability to proteinase K (in words)” value at proteinase K (proteinase K 10 μg/mL, HPLC) is reported as “most stable”. Besides, the “concentration above which cytotoxicity was observed” value with HaCaT cells is given as “above 250 μM”.
